Test results: US20050176945A1, “Cloning and characterization of slc26a7 and slc26a9 anion exchangers” (priority 2002, published 2005)

Key:
SLC26A7 [1] = target: T1, SLC26A7 (Mus musculus, UniProt Q8R2Z3, F233L/S639T); assay: 36Cl- uptake in SLC26A7-injected Xenopus oocytes; type: cell-based; design: Full-length mouse SLC26A7 and SLC26A9 cDNAs were cloned into the Xenopus expression vector pGEMHE; expressed in transfected cells; host or cells: Xenopus laevis oocytes injected with cRNA transcribed in vitro from pGEMHE; conditions: 1 mM DIDS, pH 6.0, isotonic and hypotonic conditions
T1 sequence (Q8R2Z3 1-656 F233L/S639T): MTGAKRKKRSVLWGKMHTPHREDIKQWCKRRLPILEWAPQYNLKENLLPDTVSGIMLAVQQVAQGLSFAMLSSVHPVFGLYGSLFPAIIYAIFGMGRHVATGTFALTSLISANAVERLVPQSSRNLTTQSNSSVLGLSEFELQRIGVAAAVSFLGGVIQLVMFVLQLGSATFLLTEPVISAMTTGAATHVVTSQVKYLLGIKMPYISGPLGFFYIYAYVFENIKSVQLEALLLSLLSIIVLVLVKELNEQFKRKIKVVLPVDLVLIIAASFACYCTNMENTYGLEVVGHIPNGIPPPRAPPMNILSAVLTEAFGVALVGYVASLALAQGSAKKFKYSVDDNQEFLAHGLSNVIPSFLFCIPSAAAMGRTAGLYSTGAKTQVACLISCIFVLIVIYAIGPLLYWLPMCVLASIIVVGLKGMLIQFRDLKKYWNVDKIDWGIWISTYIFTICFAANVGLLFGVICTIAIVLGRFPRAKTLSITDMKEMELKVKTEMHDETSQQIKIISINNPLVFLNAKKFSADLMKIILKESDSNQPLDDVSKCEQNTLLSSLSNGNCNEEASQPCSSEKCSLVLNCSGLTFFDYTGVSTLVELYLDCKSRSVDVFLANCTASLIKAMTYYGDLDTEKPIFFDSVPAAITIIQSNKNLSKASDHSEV
Protocol: FIG. 3A is a bar graph that depicts ^36Cl^− uptake (pmol/oocyte/h) as a function of extracellular osmolality and pH in SLC26A7-injected oocytes (A7) and water injected control oocytes (H2O). Oocytes were incubated during the pre-uptake period and uptake period at varying osmolaltiy at either pH 7.4 (open bars), pH 6.0 (black bars), or at pH 6.0 in the presence of 1 mM DIDS (grey bars). ISO, isotonic osmolality, 210 mOsm/kg; HYPO, hypotonic osmolality, 120 mOsm/kg; HYPER, hypertonic osmolality, 300 mOsm/kg; h, hour.

SLC26A9 [2] = target: T2, SLC26A9 (Mus musculus, UniProt Q8BU91, G332D/L540F); assay: 36Cl- uptake (Cl-Cl exchange) in SLC26A9-injected Xenopus oocytes; type: cell-based; design: Full-length mouse SLC26A7 and SLC26A9 cDNAs were cloned into the Xenopus expression vector pGEMHE; expressed in transfected cells; host or cells: Xenopus laevis oocytes injected with cRNA transcribed in vitro from pGEMHE; conditions: 1 mM DIDS, pH 6.0
T2 sequence (Q8BU91 1-790 G332D/L540F): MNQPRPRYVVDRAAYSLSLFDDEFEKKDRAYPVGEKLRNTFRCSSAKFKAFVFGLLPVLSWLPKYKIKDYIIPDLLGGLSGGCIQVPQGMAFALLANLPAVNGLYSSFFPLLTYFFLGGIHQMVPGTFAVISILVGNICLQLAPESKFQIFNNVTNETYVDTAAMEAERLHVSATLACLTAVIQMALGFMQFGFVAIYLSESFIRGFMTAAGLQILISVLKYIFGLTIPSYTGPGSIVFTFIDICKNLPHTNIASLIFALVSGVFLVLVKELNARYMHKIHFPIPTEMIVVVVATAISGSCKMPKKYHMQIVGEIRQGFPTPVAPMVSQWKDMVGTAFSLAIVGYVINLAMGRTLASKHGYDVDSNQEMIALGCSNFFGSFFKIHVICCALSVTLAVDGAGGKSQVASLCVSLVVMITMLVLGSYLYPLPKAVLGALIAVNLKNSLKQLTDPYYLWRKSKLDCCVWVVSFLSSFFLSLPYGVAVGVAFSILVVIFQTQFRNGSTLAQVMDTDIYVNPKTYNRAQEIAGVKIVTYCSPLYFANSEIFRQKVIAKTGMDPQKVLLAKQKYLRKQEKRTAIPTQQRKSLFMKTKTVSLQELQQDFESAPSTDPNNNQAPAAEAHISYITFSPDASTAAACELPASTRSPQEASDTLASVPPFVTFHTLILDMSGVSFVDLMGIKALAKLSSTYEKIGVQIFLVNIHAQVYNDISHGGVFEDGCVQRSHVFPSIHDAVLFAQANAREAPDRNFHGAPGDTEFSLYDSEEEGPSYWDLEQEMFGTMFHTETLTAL
Protocol: FIG. 3B is a bar graph that depicts DIDS inhibition of ^36Cl^− uptake (pmol/oocyte/h) in SLC26A9injected oocytes (Slc26a9) and water-injected control oocytes (H2O). Oocytes were incubated during the pre-uptake period and uptake period at either pH 7.4 (open bars), pH 6.0 (black bars), or at pH 6.0 in the presence of 1 mM DIDS (grey bars). H, hour.
FIG. 3C is a bar graph that depicts a lack of cis-inhibition of Cl^−-Cl^− exchange in oocytes expressing SLC26A9 or in control oocytes (H2O). Oocytes were incubated in medium containing ^36Cl^− for one hour in the absence (control) or presence of 25 mM of the indicated anions.

SLC26A7 [3] = target: T1, SLC26A7; conditions: 25 mM Cl- added to the medium
Protocol: (§1) Oocytes expressing SLC26A2, SLC26A7, or SLC26A9, or control oocytes (H2O) were incubated in medium containing ^35SO4^2− for one hour. (−), Cl^−-free medium; (+), 25 mM Cl^− added to the medium; hr, hour.
(§2) Full-length mouse SLC26A7 and SLC26A9 cDNAs were cloned into the Xenopus expression vector pGEMHE (Liman et al., 1992). SLC26A6 and SLC26A2 constructs were also prepared for use as controls in transport assays (Example 7). Expression constructs were linearized, and cRNA was transcribed in vitro using T7 RNA polymerase and a […] MMACHINE® transcription kit (Ambion, Inc. of Austin, Tex., United States of America). Defolliculated oocytes were injected with 25 nl to 50 nl of water or with a solution containing cRNA at a concentration of 0.5 μg/μl (12.5 ng to 25 ng per oocyte) using a Nanoliter-2000 injector (WPI Instruments of Sarasota, Fla., United States of America). Oocytes were incubated at 17° C. in 50% Leibovitz's L-15 media supplemented with penicillin/streptomycin (1000 units/ml) and glutamine for 2-3 days for uptake assays.
(§3) For sulphate uptake assays, oocytes were pre-incubated for 20 minutes in chloride-free uptake medium (100 mM NMDG gluconate, 2 mM potassium gluconate, 1 mM calcium gluconate, 1 mM magnesium gluconate, 10 mM HEPES-Tris, pH 6.0 or pH 7.5 as indicated), followed by a 60-minute period for uptake in the same medium supplemented with 1 mM K2^35SO4 (40 μCi/ml). The cells were then washed three times in uptake buffer with 5 mM cold K2SO4 to remove tracer activity in the extracellular fluid. The oocytes were dissolved individually in 10% SDS, and tracer activity was determined by scintillation counting. Uptake of chloride, formate, and oxalate was assayed using the same chloride-free uptake solutions, substituting 8.3 mM ^36Cl, 500 μM [^14C]oxalate, or 50 μM [^14C]formate for labeled sulphate. Each uptake experiment included 12-18 oocytes in each experimental group, and results were reported as means±SEM. […]

SLC26A2 = conditions: 25 mM Cl- added to the medium
Protocol: as §1, §2, §3

SLC26A9 [4] = target: T2, SLC26A9; conditions: 25 mM Cl- added to the medium
Protocol: as §1, §2, §3

| Compound | DIDS sensitivity of SLC26A7 36Cl- uptake activity (SLC26A7 [1]) | DIDS sensitivity of Cl-Cl exchange mediated by SLC26A9 (SLC26A9 [2]) | effect of extracellular Cl- on 35SO4 2- uptake in SLC26A7-injected oocytes (SLC26A7 [3]) | effect of extracellular Cl- on 35SO4 2- uptake by SLC26A2 (SLC26A2) | effect of extracellular Cl- on 35SO4 2- uptake in SLC26A9-injected oocytes (SLC26A9 [4]) |
| --- | --- | --- | --- | --- | --- |
| O=S(=O)(O)c1cc(N=C=S)ccc1C=Cc1ccc(N=C=S)cc1S(=O)(=O)O [DIDS, 4,4′-diisothiocyanatostilbene-2,2′-disulfonic acid] | modestly DIDS-sensitive | moderately sensitive | – | – | – |
| Cl [Cl^−, chloride] | – | – | without activating | significantly inhibited | without activating |
